Source: PMC8861431, “Tissue Pharmacokinetic Properties and Bystander Potential of Hypoxia-Activated Prodrug CP-506 by Agent-Based Modelling” (Frontiers in Pharmacology, 2022)

Tested on: HCT-116 WT cell line
Assay: Monolayer clonogenic assay
Type: cell-based
Conditions: Homo sapiens; HCT-116 WT monolayer; 4 h exposure, <1 ppm O2; read-out: Clonogenic IC50 under anoxia
Experimental: Cells (4.8 x 10^5 cells) were seeded with 2 ml culture medium into 6-well plates and left to attach for 2 h in a humidified 37°C incubator. Compounds were then prepared in culture medium and added in a 500 µl volume to each well. Plates were returned to a humidified 37°C incubator for the duration of the drug exposure (4 h). Aerobic and anoxic experiments were performed as described above. Plates were then removed from the anaerobic chamber and processed alongside the aerobic cultures. Cells were detached from monolayer by trypsinisation and plated at serial dilutions in 6-well plates. Cells were left to grow in a standard 37°C incubator for 10 days until the controls formed discrete colonies comprised of at least 50 cells. Colonies were visualized by staining with methylene blue (2 g/L in 50% aqueous ethanol) for 30 min. The number of colonies with at least 50 cells was manually counted to determine the plating efficiency. The surviving fraction was determined as the ratio of plating efficiency of treated cells to that of the controls.

Compound `CCN1CCN(C(=O)c2cc(N(CCBr)CCOS(C)(=O)=O)c(S(C)(=O)=O)cc2[N+](=O)[O-])CC1` [CP-506, 2-[(2-bromoethyl)-5-[(4-ethyl-1-piperazinyl)carbonyl]-2-(methylsulfonyl)-4-nitroanilino]ethyl methanesulfonate] has an IC50 of 7.4 ± 0.5 µM.
